Values joined by “and” are separate entries in the source; they are usually repeats but may differ in a detail not shown here. Equal values may be shown once. ± gives the expanded uncertainty stated by the source.

Data set [1] is described as follows: molar enthalpy of vaporization or sublimation. The note with it: 298.15 K; Crystal; Static calorimetry.
For data set [2] the following is noted: Crystal, Calculated from knudsen effusion weight loss.

For `Cc1nnc(S)[nH]c1=O` [6-aza-2-thiothymine], the molar enthalpy in data set [1] was found to be 28.7 ± 0.669 kcal/mol.
As to `Cc1n[nH]c(=O)[nH]c1=O` [6-azathymine], in data set [1], the molar enthalpy stood at 26.1 ± 0.55 kcal/mol.
For the compound `O=c1cn[nH]c(=O)[nH]1` [6-azauracil], the vapor or sublimation pressure (usually the pressure of vapour in equilibrium with the condensed phase) in data set [2] (377.16 K) was 0.00012 ± 0.0001 kPa and 0.000109 ± 0.0001 kPa; in data set [2] (379.12 K), 0.000138 ± 0.0001 kPa and 0.000142 ± 0.0001 kPa and 0.000131 ± 0.0001 kPa; in data set [2] (381.1 K) it was 0.000167 ± 0.0001 kPa and 0.000164 ± 0.0001 kPa; in data set [2] (383.16 K), 0.000205 ± 0.0001 kPa and 0.000198 ± 0.0001 kPa and 0.000227 ± 0.0001 kPa; in data set [2] (385.1 K), 0.000252 ± 0.0001 kPa and 0.000229 ± 0.0001 kPa and 0.000269 ± 0.0001 kPa; in data set [2] (387.09 K), 0.000301 ± 0.0001 kPa and 0.000282 ± 0.0001 kPa. The “vapor or sublimation pressure” value in data set [2] (389.15 K) was 0.00037 ± 0.0001 kPa and 0.000355 ± 0.0001 kPa and 0.000413 ± 0.0001 kPa; in data set [2] (391.1 K) it was 0.000452 ± 0.0001 kPa and 0.000422 ± 0.0001 kPa and 0.000477 ± 0.0001 kPa; in data set [2] (393.1 K), 0.000538 ± 0.0001 kPa and 0.000515 ± 0.0001 kPa and 0.000575 ± 0.0001 kPa; in data set [2] (395.15 K), 0.00061 ± 0.0001 kPa and 0.000596 ± 0.0001 kPa and 0.000684 ± 0.0001 kPa; in data set [2] (397.13 K), 0.000756 ± 0.0001 kPa and 0.000711 ± 0.0001 kPa and 0.000812 ± 0.0001 kPa; in data set [2] (399.12 K) it was 0.000901 ± 0.00011 kPa and 0.000859 ± 0.00011 kPa and 0.000945 ± 0.00011 kPa. For the same compound, the molar enthalpy in data set [1] was 28.2 ± 0.502 kcal/mol.

The values are drawn from the NIST ThermoML archive (doi:10.1016/j.jct.2015.12.020).
